Source: patent publication US8207361B2, “Tigecycline crystalline forms and processes for preparation thereof” (Teva Pharmaceutical Industries Ltd., priority 2006, dated 2012)

Test: Exposure of crystalline form to about 100% room humidity, crystal form monitored by XRD
Format: physicochemical
Details: after exposure to about 100% RH for about 7 days at about room temperature, Form I prepared from ethyl acetate (about 80 mg)
Description: A round aluminum sample holder with zero background was used.

CN(C)c1cc(NC(=O)CNC(C)(C)C)c(O)c2c1C[C@H]1C[C@H]3[C@H](N(C)C)C(O)=C(C(N)=O)C(=O)[C@@]3(O)C(O)=C1C2=O [Form I, (4S,4aS,5aR,12aS)-9-(2-(tert-butylamino)acetamido)-4,7-bis(dimethylamino)-1,4,4a,5,5a,6,11,12a-octahydro-3,10,12,12a-tetrahydroxy-1,11-dioxo-2-naphthacenecarboxamide]
Crystal form: Amorphous
